The target of test [1] is T1, mitochondrial calcium uniporter (MCU) (Homo sapiens, UniProt Q8NE86).
T1 construct: We measured mitochondrial Ca^2+ uptake using permeabilized HEK cells; endogenous in cells; host or cells: HEK293 cells, saponin-permeabilized
T1 sequence (Q8NE86 51-351): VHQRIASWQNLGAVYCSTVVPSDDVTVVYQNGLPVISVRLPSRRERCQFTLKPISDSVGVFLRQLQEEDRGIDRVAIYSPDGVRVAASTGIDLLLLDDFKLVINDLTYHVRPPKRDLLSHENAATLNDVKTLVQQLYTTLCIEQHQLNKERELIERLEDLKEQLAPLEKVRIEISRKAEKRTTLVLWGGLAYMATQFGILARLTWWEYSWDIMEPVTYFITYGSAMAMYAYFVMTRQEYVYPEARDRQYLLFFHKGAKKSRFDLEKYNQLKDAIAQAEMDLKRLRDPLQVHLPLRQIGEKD
T1 sequence (Q9H4I9 48-107 partner limits assumed): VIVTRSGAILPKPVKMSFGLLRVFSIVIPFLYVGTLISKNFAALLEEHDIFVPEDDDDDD
Briefly: Calcium green mitochondrial Ca2+ uptake assay in permeabilized HEK cells. The test is classed as cell-based. Conditions: Ru360 10 μM or DN-MCU adenovirus (FIG. 6). The protocol:
(§1) SAN cells were placed in Tyrode's solution at 36±0.5° C. and were identified by their characteristic morphology (spindle or spider shape) and spontaneous activity. SAN cells were identified electrophysiologically by spontaneous action potentials with a slow depolarizing phase 4 and the hyperpolarization-activated current (If).^27 Spontaneous action potentials, If and ICa were recorded using the perforated (amphotericin B or β-escin in studies requiring dialysis of Ru360 and/or ATP) patch-clamp technique^28 on single SAN cells at 36±0.5° C. in Tyrode's solution. Intracellular Ca^2+ transients were recorded from single SAN cells using Fura-2 AM excited at 340 nm and 380 nm and emitted and 510 nm. Endogenous NADH from single SAN cells was measured by excitation at 350 nm and recording emitted light at 460 nm.^29 Mitochondrial Ca^2+ was measured at 535 nm from mt-pericam expressing SAN cells exited at 415 nm^20. Mitochondrial Ca^2+ entry was measured in cell membrane permeabilized cardiomyocytes isolated from DN-MCU transgenic, wild type mice and from HEK293 cells using Calcium green-5N^30.
We measured mitochondrial Ca^2+ uptake using permeabilized HEK cells as previously described^30,40. […] Fluorescence was measured using a Tecan plate reader. […] Fluorescence intensity was measured from 50,000 […]/well. […]

The test system of test [2] is SERCA2a activity ([Ca2+]cyto decline). Briefly: Cytoplasmic Ca2+ transient decay (Fura-2 AM) in SAN cells. The note with it: Ru360 dialysis. The test is classed as cell-based, mouse. The protocol:
as §1
Cytosolic Ca^2+ levels were recorded from Fura-2-loaded cells, excited at wavelengths of 340 and 380 nm, and imaged with a 510 nm long-pass filter. Single isolated SAN cells were loaded with 0.1 μM Fura-2 AM for 20 minutes, and then perfused for 20 minutes to de-esterfy the Fura-2 AM in normal Tyrode's solution. After placement on a recording chamber, the cells were perfused in normal Tyrode's solution at 36° C.±0.5. Spindle-shaped, spontaneously beating cells were chosen for experiments. Action potential recording was performed simultaneously.

The subject of the next test is HCN4 inward current (If). Put plainly: If current recording in SAN cells. The test is classed as cell-based, mouse. Conditions: Ru360 dialysis. The procedure: as §1
(§2) Spontaneous action potentials (APs) and If were recorded using the perforated (amphotericin B or β-escin) patch-clamp technique^28 on single SAN cell at 36±0.5° C. in Tyrode's solution (0.5 mM BaCl2 was added to the bath solution when recording If^32). […]

For test [3], the system named is CaV1 L-type Ca2+ current (ICa). Put plainly: ICa current recording in SAN cells. The test is classed as cell-based, mouse. Conditions: Ru360 dialysis. The protocol:
as §1, §2

For the next test, the target named is mitochondria. The note with it: read-out: Kd, binding to mitochondria; cited from earlier work.
The test system of test [4] is Ca2+ uptake into mitochondria. The note with it: in vitro; read-out: IC50, block of Ca2+ uptake into mitochondria in vitro; cited from earlier work.
Test [5] deals with Ca2+ uptake into mitochondria in intact myocytes. The note with it: incubation with ~10 μM Ru360 for 30 min; cited from earlier work.
The subject of test [6] is other cellular Ca2+ transport processes involved in cardiac muscle contraction. Conditions: even at micromolar levels; cited from earlier work.

(μ)[(HCO2)(NH3)4Ru]2OCl3) [Ru360]: the “Mitochondrial Ca2+ entry” value in test [1] is recorded as “similarly effective at preventing”. Also, in test [2] (ISO stimulated), the “Decline in [Ca2+]cyto after ISO” value is listed as “slowed”. For the same substance, the “Decline in [Ca2+]cyto in the absence of ISO stimulation” value in test [2] (no ISO) is listed as “did not slow”. Moreover, the “If responses to ISO” value in the test on HCN4 inward current (If) is given as “not reduced”. Also, in test [3], the “ISO-induced ICa increases” value was “not impaired”. Further, the Kd (in general, the equilibrium constant for the complex coming apart) at mitochondria was 0.34 nM. Further, in test [4], the IC50 (in general, the concentration at which inhibition is half-maximal) was 0.184 nM. Also, the “Block of Ca2+ uptake into mitochondria in intact myocytes” value in test [5] is listed as “completely blocks”. In addition, the “Effect on other cellular Ca2+ transport processes involved in cardiac muscle contraction” value in test [6] is “does not affect”.

The record behind these values is US20160095837A1, “MODULATION OF MITOCHONDRIAL CALCIUM UNIPORTER ACTIVITY FOR TREATING AND PREVENTING ARRHYTHMIAS” (priority 2014, published 2016).
